From patent publication US9115092B2, “Substituted quinazoline and pyrido-pyrimidine derivatives” (Asana Biosciences, LLC, priority 2010, dated 2015)

Legend:
pAkt(5473), T47D cells = experiment: In-cell Western assay, pAkt(5473) in T47D cells; assay type: cell-based; conditions: Homo sapiens, T47D cell line, read-out: inhibition of pAkt(5473), IC50
pS6RP, T47D cells = experiment: In-cell Western assay, pS6RP in T47D cells; assay type: cell-based; conditions: Homo sapiens, T47D cell line, read-out: inhibition of pS6RP, IC50

CN(C)C(=O)c1ccc(NC(=O)Nc2ccc(-c3nc(N4CCOCC4)c4ccc(-c5cncnc5)cc4n3)cc2)cc1 [Example 1, N,N-Dimethyl-4-(3-{4-[4-morpholin-4-yl-7-pyrimidin-5-yl-quinazolin-2-yl)-phenyl]-ureido}-benzamide]
IC50 (pAkt(5473), T47D cells): < 300 nM
IC50 (pS6RP, T47D cells): < 50 nM
